Target: T1, TweCA (TweCAδ) (Conticribra weissflogii, UniProt Q5U9J1)
T1 construct: gene ca1; recombinant, obtained in-house as reported earlier
T1 sequence (Q5U9J1 1-281): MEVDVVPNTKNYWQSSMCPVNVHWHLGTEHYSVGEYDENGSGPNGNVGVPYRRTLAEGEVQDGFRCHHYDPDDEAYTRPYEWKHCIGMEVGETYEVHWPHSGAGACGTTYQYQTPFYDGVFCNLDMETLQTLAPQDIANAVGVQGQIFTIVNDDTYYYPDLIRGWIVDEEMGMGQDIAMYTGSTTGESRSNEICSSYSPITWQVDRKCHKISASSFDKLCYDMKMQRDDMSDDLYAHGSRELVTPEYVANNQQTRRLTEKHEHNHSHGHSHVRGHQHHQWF
Test: stopped-flow CO2 hydration assay
Assay type: biochemical

| Structure (SMILES) | Ki |
| --- | --- |
| Oc1ccccc1O [compound 2, R = 2-OH] | 4.5 µM |
| O=C(O)c1ccccc1O [compound 10, R = 2-COOH] | 0.95 µM |
| Oc1cc(F)cc(F)c1 [compound 16, R = 3,5-diF] | 21 µM |
| Nc1ccc(O)cc1 [compound 7, R = 4-NH2] | 17.6 µM |
| O=C(O)c1ccc(O)cc1 [compound 11, R = 4-COOH] | 1.4 µM |
| O=C(O)c1cc(O)ccc1O [compound 20, R = 2-COOH-4-OH] | 0.81 µM |
| O=C(O)/C=C/c1ccc(O)cc1 [compound 21, R = 4-(CHCHCOOH)] | 14.5 µM |
| N#Cc1ccc(O)cc1 [compound 9, R = 4-CN] | 56.9 µM |
| OCc1ccc(O)cc1 [compound 12, R = 4-CH2OH] | 35.9 µM |
| Oc1cc(F)ccc1F [compound 15, R = 2,5-diF] | 30.7 µM |
| CC(=O)Nc1ccc(O)cc1 [compound 8, R = 4-NHCOCH3] | 7.9 µM |
| Nc1cccc(O)c1 [compound 6, R = 3-NH2] | 65.4 µM |
| Oc1ccccc1 [compound 1, phenol (R = H)] | 52.3 µM |

Results, then the compound that gave them:

| Ki | Structure (SMILES) |
| --- | --- |
| 13.8 µM | Oc1c(F)cc(F)cc1F [compound 17, R = 2,4,6-triF] |
| > 100 µM | Nc1ccc(O)c(Cl)c1 [compound 14, R = 4-NH2-2-Cl] |
| 2.7 µM | O=C(O)c1c(O)cccc1O [compound 19, R = 2-COOH-3-OH] |
| 4.9 µM | O=C(O)c1ccc(O)c(O)c1 [compound 18, R = 4-COOH-2-OH] |
| 5.9 µM | O=C(O)/C=C/c1ccc(O)c(O)c1 [compound 22, R = 2-OH-4-(CHCHCOOH)] |
| 2 µM | Oc1ccc(O)c(O)c1 [compound 5, R = 2,4-diOH] |
| 34.9 µM | Oc1ccc(O)cc1 [compound 4, R = 4-OH] |
| > 100 µM | Nc1cc(O)ccc1Cl [compound 13, R = 3-NH2-4-Cl] |
| 48.2 µM | Oc1cccc(O)c1 [compound 3, R = 3-OH] |
